Laboratory results published in article PMC8509428, “The Phenoxyalkyltriazine Antagonists for 5-HT6 Receptor with Promising Procognitive and Pharmacokinetic Properties In Vivo in Search for a Novel Therapeutic Approach to Dementia Diseases” (International Journal of Molecular Sciences, 2021).
Read-outs that look alike come from different tables or passages of the source.

Tests used:
5-HT1AR = biological target: T1, 5-HT1AR (Homo sapiens, UniProt P08908); assay: Radioligand binding assay (RBA), 5-HT1AR; details: ± SD; displacement of [3H]-8-OHDPAT, HEK-293 cells; read-out: Ki 5-HT1A (converted)
T1 construct: expressed in transfected cells; host or cells: HEK-293
T1 sequence (P08908 1-422): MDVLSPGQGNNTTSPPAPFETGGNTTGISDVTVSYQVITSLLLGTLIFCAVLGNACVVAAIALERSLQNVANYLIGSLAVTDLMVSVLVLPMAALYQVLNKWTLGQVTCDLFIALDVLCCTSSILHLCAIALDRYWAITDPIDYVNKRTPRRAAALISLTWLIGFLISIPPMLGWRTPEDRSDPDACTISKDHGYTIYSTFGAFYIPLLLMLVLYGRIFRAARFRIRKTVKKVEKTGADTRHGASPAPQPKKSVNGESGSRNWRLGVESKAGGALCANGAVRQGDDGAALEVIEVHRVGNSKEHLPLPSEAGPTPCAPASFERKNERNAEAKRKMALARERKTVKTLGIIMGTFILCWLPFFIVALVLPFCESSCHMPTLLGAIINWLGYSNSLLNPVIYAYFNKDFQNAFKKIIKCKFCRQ
Procedure: The cells used in the radioligand binding assays receptor 5-HT1A were stably expressed in HEK-293 cells. Transfections were performed with the use of Lipofectamine 2000. The binding procedure was accomplished via the displacement of 2.5 nM [^3H]-8-OHDPAT (135.2 Ci/mmol) for 5-HT1AR. Each compound was tested in triplicate in seven to eight different concentrations (10^−11 to 10^−4 M). The inhibition constants (Ki) were calculated using the Cheng–Prusoff equation [45] and the results are expressed as the mean of at least two independent experiments.

5-HT2A receptor = biological target: T2, 5-HT2A receptor (Homo sapiens, UniProt P28223); assay: Functional assay for 5-HT2A receptor (aequorin, CHO-K1 cells); type: cell-based
T2 construct: expressed in transfected cells; host or cells: CHO-K1
T2 sequence (P28223 whole entry): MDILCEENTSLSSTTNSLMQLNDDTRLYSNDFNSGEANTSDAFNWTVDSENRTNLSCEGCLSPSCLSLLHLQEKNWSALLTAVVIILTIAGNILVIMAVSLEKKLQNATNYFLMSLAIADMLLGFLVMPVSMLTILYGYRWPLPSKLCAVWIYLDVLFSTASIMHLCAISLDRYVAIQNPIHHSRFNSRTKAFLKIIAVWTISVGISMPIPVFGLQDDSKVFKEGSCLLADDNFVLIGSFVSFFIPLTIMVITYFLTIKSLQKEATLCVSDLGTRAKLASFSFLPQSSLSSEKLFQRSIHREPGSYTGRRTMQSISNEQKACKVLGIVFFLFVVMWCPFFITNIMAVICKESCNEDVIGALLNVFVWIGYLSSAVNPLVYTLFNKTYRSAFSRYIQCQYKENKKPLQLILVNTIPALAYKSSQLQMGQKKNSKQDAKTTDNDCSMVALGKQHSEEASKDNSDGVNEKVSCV

[1] = Bi-directional Caco-2 permeability assay; type: in vitro ADME; details: human, pH 7.4, Caco-2, 10 µM, triplicate
CYP3A4 = biological target: T3, CYP3A4 (Homo sapiens, UniProt P08684); assay: CYP3A4 P450-Glo assay; type: in vitro ADME; details: 10 μM of compound
T3 construct: purchased Promega
T3 sequence (P08684 whole entry): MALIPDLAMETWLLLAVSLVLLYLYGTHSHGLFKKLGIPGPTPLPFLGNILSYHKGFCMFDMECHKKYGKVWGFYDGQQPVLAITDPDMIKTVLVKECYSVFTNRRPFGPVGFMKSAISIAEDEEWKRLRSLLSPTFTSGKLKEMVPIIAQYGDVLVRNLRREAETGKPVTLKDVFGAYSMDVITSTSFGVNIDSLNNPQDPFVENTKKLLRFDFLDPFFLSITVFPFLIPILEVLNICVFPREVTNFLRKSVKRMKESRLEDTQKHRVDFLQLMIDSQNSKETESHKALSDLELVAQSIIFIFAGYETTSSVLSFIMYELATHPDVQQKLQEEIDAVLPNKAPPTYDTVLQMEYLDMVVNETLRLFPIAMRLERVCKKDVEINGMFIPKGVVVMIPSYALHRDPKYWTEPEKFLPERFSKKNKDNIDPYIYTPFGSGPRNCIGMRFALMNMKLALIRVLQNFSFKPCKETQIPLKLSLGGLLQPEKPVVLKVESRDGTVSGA
Procedure: The luminescent CYP3A4 P450-Glo™ Promega® (Madison, WI, USA) was used for the investigation of potential drug-drug interactions. All assays and protocols were described before. The compounds were tested in triplicate at the final concentrations in the range from 0.01 to 25 μM. The luminescent signal was measured by using a microplate reader EnSpire PerkinElmer (Waltham, MA, USA).

[2] = tested on: Salmonella Typhimurium TA100; type: cell-based
rats [3] = assay: Forced swim test (FST); type: in vivo, rat; details: for Immobility Time: 60 min before test, mean ± SEM
Procedure: The experiment was carried out according to the method of [54]. On the first day of the experiment, the animals were gently individually placed in Plexiglas cylinders (40 cm high, 18 cm in diameter) containing 15 cm of water maintained at 23–25 °C for 15 min. On removal from water, the rats were placed for 30 min in a Plexiglas box under 60-W bulb to dry. On the following day (24 h later), the rats were replaced in the cylinder and the total duration of immobility was recorded during the whole 5-min test period. The immobility was assigned when no additional activity was observed other than that necessary to keep the rat’s head above the water. Fresh water was used for each animal.

rats [4] = assay: Elevated plus-maze (EPM) test; type: in vivo, rat; details: for Open Arms % of entries / Open Arms % of time / Open Arms Distance / Open Arms Entries / Open Arms Time: mean ± SEM
Source text: The testing procedure was based on a method described by. Plus-maze apparatus (an automated device produced by Campden Instruments Ltd. (Leicestershire, UK) made of durable, high density, non-porous black plastic, elevated to a height of 50 cm, consisted of two open arms (50 × 10 cm) and two closed arms (50 × 10 cm, and 30 cm high walls), arranged so that the two arms of each type were opposite each other. The floor of the plus-maze was made of infrared transparent material what means that there are no visible sensors. Plus-maze apparatus was connected to PC software by control chassis. The experiments were conducted in a darkened room, only the center of the maze was illuminated with low-intensity light (30 lux measured on the maze level). Each rat was gently placed in the center of the plus-maze, facing one of the closed arms, immediately after a 5-min adaptation period in a plastic black box (60 × 60 × 35 cm), to increase the overall activity in the EPM. During a 5-min test period, automated Motor Monitor System recorded the number of entries into the closed and open arms and the time spent in either type of arms. The device counted an effective arm-entry when the four paws of a rat were into any arm. The maze was thoroughly cleaned after each trial. The EPM test is an “unconditional” anxiety-like test based on rodents’ natural aversion to heights and open space.

rats [5] = assay: Exploratory activity measured in the EPM test; type: in vivo, rat; details: for Total Distance / X Ambulation / Y Ambulation: mean ± SEM
Procedure: The experiment was performed using an EPM apparatus (details see above). Total ambulation (the total distance covered by a rat, and ambulation along X and Y axis) was taken to discern drug effects on general activity from those on open-arm exploration, during a 5-min test period (i.e., the time equal to the observation period in the EPM test). Rats’ behavior was not videotaped during the test.

human 5-HT6R = details: ± SD; read-out: Ki 5-HT6 (converted); cited from earlier work
dopaminergic receptor D2 = details: ± SD; cited from earlier work
5-HT7R = details: ± SD; read-out: Ki 5-HT7 (converted); cited from earlier work
[6] = cited from earlier work
hepatoma HepG2 cell line = details: 50 µM; cited from earlier work
[7] = tested on: MK-801-induced memory deficits in rats; details: i.p.; cited from earlier work
[8] = biological target: human serotonin 5-HT6 receptor (Homo sapiens, UniProt P50406); parameters: host or cells: 1321N1; details: cited from earlier work
human serotonin 5-HT6 receptor, sequence (P50406 whole entry): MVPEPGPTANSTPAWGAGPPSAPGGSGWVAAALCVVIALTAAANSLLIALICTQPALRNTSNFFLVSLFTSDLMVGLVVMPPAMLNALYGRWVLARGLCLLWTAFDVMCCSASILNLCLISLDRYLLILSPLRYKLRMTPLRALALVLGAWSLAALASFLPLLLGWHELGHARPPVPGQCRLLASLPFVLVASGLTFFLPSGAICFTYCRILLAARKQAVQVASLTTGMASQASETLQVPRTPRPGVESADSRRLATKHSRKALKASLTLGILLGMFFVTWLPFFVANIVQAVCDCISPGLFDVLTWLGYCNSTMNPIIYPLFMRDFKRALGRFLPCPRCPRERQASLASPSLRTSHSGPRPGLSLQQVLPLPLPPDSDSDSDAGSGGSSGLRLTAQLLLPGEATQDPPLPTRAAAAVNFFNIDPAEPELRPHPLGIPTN

5-HT6R = details: Figure 1; ref 10 (AG-1), 11 (AG-2), 12 (AN-1), 13 (AN-2); cited from earlier work
rats [9] = details: i.p.; ref 10 (AG-1), 11 (AG-2), 12 (AN-1), 13 (AN-2); cited from earlier work

CCC(Oc1cc(Cl)ccc1Cl)c1nc(N)nc(N2CCN(C)CC2)n1 (racemic) [Compound 1, (RS)-4-[1-(2,5-dichlorophenoxy)propyl]-6-(4-methylpiperazin-1-yl)-1,3,5-triazin-2-amine]
Ki (5-HT1AR): 4760 ± 1190 nM
Emax (5-HT2A receptor; Table S2, read-out: 5-HT2A Antagonist mode Emax): 0%
Emax (5-HT2A receptor; read-out: 5-HT2AR Agonist Mode Emax): 58 ± 9.7%
Papp A→B at 2 h, 10 µM [1]: 14.2 ± 0.36 ×10⁻⁶ cm/s
Papp B→A at 2 h, 10 µM [1]: 22.2 ± 1.92 ×10⁻⁶ cm/s
CYP3A4 activity remaining (CYP3A4): 44%
Binomial B-Value ([2]; 1 µM): 0.0707
Number of Revertants ± SD ([2]; 1 µM): 2.00 ± 1.00
Binomial B-Value ([2]; 10 µM): 0.0707
Number of Revertants ± SD ([2]; 10 µM): 2.00 ± 1.00
Immobility Time (rats [3]; 1 mg/kg i.p.): 241.80 ± 18.7 s
decrease of immobility time vs vehicle-treated group (rats [3]; 3 mg/kg): about 30%
Immobility Time (rats [3]; 3 mg/kg i.p.): 175.29 ± 18.1 s
decrease of immobility time vs vehicle-treated group (rats [3]; 10 mg/kg): about 36%
Immobility Time (rats [3]; 10 mg/kg i.p.): 163.63 ± 11.2 s
Open Arms % of entries (rats [4]; 1 mg/kg i.p.): 32.59 ± 4.23%
Open Arms % of time (rats [4]; 1 mg/kg i.p.): 25.76 ± 6.11%
Open Arms Distance (rats [4]; 1 mg/kg i.p.): 788 ± 175 cm
Open Arms Entries (rats [4]; 1 mg/kg i.p.): 9.88 ± 1.99
Open Arms Time (rats [4]; 1 mg/kg i.p.): 58.90 ± 14.20 s
Open Arms % of entries (rats [4]; 3 mg/kg i.p.): 29.49 ± 3.48%
Open Arms % of time (rats [4]; 3 mg/kg i.p.): 10.27 ± 2.05%
Open Arms Distance (rats [4]; 3 mg/kg i.p.): 307 ± 78 cm
Open Arms Entries (rats [4]; 3 mg/kg i.p.): 6.14 ± 0.77
Open Arms Time (rats [4]; 3 mg/kg i.p.): 24.81 ± 5.24 s
Open Arms % of entries (rats [4]; 10 mg/kg i.p.): 42.23 ± 9.09%
Open Arms % of time (rats [4]; 10 mg/kg i.p.): 18.34 ± 4.19%
Open Arms Distance (rats [4]; 10 mg/kg i.p.): 538 ± 104 cm
Open Arms Entries (rats [4]; 10 mg/kg i.p.): 7.20 ± 1.66
Open Arms Time (rats [4]; 10 mg/kg i.p.): 43.36 ± 9.08 s
anxiolytic-like activity in EPM test (rats [4]; i.p., 60 min before test): did not show anxiolytic-like activity
Total Distance (rats [5]; 1 mg/kg i.p.): 4520 ± 168 cm
X Ambulation (rats [5]; 1 mg/kg i.p.): 172 ± 6
Y Ambulation (rats [5]; 1 mg/kg i.p.): 99 ± 6
Total Distance (rats [5]; 3 mg/kg i.p.): 3995 ± 218 cm
X Ambulation (rats [5]; 3 mg/kg i.p.): 146 ± 10
Y Ambulation (rats [5]; 3 mg/kg i.p.): 82 ± 7
decrease of total distance (rats [5]; 10 mg/kg i.p.): 20%
Total Distance (rats [5]; 10 mg/kg i.p.): 3681 ± 256; p < 0.05 F(3,24) = 4.5291; p < 0.05 cm
X Ambulation (rats [5]; 10 mg/kg i.p.): 140 ± 11 F(3,24) = 3.8035; p < 0.05
Y Ambulation (rats [5]; 10 mg/kg i.p.): 83 ± 8 F(3,24) = 1.9215; NS
Ki (human 5-HT6R): 6 ± 1 nM
Ki (dopaminergic receptor D2): 320 ± 19 nM
Ki (5-HT7R): 5710 ± 967 nM
number of metabolites formed ([6]; RLMs, 120 min): six
parent biotransformed ([6]; RLMs, 120 min): more than 90%
parent remaining (metabolic stability) ([6]; compound 1, RLMs): < 10%
hepatotoxic effect, HepG2 (hepatoma HepG2 cell line): weak hepatotoxic effect
effective dose in NOR test [7]: 3 mg/kg
5-HT6 Antagonist Mode Emax ([8]; Table S1, compound 1): 98%
5-HT6R Agonist Mode Emax ([8]; compound 1, previous functional assays): 4.00 ± 0.00%

COc1ccc2c(c1)c(C1=CCNCC1)cn2S(=O)(=O)c1cncc2ccccc12 [AN-1]
Ki (5-HT6R): 3 nM
dose with procognitive effect in the NOR test (rats [9]): 1 mg/kg

CN(C)CCn1cnc2ccc(NS(=O)(=O)c3ccc4c(Cl)cccc4c3)cc21 [AN-2]
Ki (5-HT6R): 9 nM
dose with procognitive effect in the NOR test (rats [9]): 1 mg/kg

NCCc1cn(S(=O)(=O)c2c(Cl)nc3sccn23)c2ccccc12 [AG-2]
dose with procognitive effect in the NOR test (rats [9]): 3 mg/kg
